Assay results as given in publication PMC3401907, “Cellular Uptakes, Biostabilities and Anti-miR-210 Activities of Chiral Arginine-PNAs in Leukaemic K562 Cells” (Chembiochem, 2012).
Blank lines part the entries; values can stand above or below the substance they belong to.

Legend:
K562 cells [1] = assay: Cellular uptake of fluorescein-labelled PNAs by FACS analysis; assay type: cell-based, human; details: 24 h incubation; for change of cellular uptake in the presence of serum: medium with serum vs serum-free, FACS
Procedure: We therefore studied the uptake of backbone-modified PNAs in the same cellular model and compared the obtained results with those observed in the study of PNA1 and PNA2. K562 cells were incubated in the presence of increasing concentrations of fluorescein-labelled PNAs (PNA1–6-Fl) for 24 and 48 h and analysed by fluorescence-activated cell sorting analysis (FACS), giving the results shown in Figure 3. Because different PNA structures could be affected by proteases present in serum, leading to different cellular uptakes, these experiments were conducted both in the presence and in the absence of serum.
Human cell lines and culture conditions: Human leukaemia K562 cells were cultured under humidified CO2 (5 %)/air in RPMI 1640 medium (Sigma) supplemented with foetal bovine serum (FBS, 10 %, Analitical de Mori, Milan, Italy), penicillin (50 units mL^−1) and streptomycin (50 μg mL^−1).[26] Mithramycin (MTH) was from Sigma. Stock solutions of MTH (100 μM) were stored at −20 °C in the dark and diluted immediately before use. Treatment of K562 cells with MTH was carried out by addition of the appropriate drug concentrations at the beginning of the cultures (cells were seeded at 30 000 mL^−1). The medium was not changed during the induction period. To determine antiproliferative activity, cell growth was studied by determining the cell number per mL with a Z1 Coulter Counter (Coulter Electronics, Hialeah, FL, USA). Erythroid differentiated K562 cells containing haemoglobin were detected by specific reaction with a benzidine/hydrogen peroxide solution as reported elsewhere.[26] The final concentration of benzidine was 0.2 % in glacial acetic acid (5 M) and H2O2 (10 %).
(§1) FACS analysis: For determination of fluorescence intensity by FACScan (Becton Dickinson, Franklin Lakes, NJ, USA), cells (either in medium supplemented with serum or under serum-free conditions) were incubated with the indicated concentrations of PNAs for different lengths of time, harvested and washed. The cells (3×10^5) were then analysed with the aid of the CellQuest version 3.3 software (Becton Dickinson), with use of the FL1 channel to detect green fluorescence. The results were expressed as median fold (i.e., the ratio between the median fluorescence intensity values obtained in the presence and in the absence of treatment, respectively). A graphic presentation of data was finally obtained through histograms, showing the number of cells versus the expressed fluorescence intensity. In some experiments we pre-incubated fluorescence-labelled PNAs (2 μM) for 10 min at room temperature in the dark with trypsin/EDTA (0.05 %, 2 and 4 μL) before addition to the cells.

K562 cells [2] = assay: Cellular uptake (FACS) after pre-incubation with trypsin; assay type: cell-based, human; details: PNA 2 μM pre-incubated 10 min at room temperature with trypsin (0.012–0.025 %), then K562 cells in the absence of serum
Procedure: In order to explore the effect of protection against proteases further, pre-incubation of the PNA–peptide conjugate PNA2-Fl and the modified PNAs PNA3-Fl, PNA4-Fl, PNA5-Fl and PNA6-Fl was performed with trypsin (0.012–0.025 %) before allowing interaction with target K562 cells in the absence of serum (see Figure 4). […] The embedding of arginine residues into the PNA backbone thus allows efficient cellular uptake to be achieved without the risk of degradation even by a basic amino-acid-specific peptidase. In contrast, the carrier peptide of PNA2-Fl is to a certain degree an Achilles' heel of the molecule, leading to possible degradation by proteases, an effect worth considering in view of possible developments of PNAs as drugs based on anti-miR activity.
as §1

[3] = tested on: DNA2 (mismatched DNA, G→T); assay: Melting temperature (Tm) of PNA:DNA duplexes, single-mismatch DNA; assay type: binding; details: for Tm, DNA2 in urea (5 M): single mismatch, UV absorbance at 260 nm, PBS buffer pH 7 with urea 5 M, strand concentration 5 μM
Description: (§2) Sequence selectivity is a very important issue in view of the use of PNAs in cellular systems, because partial hybridisation might occur with other unrelated miRNAs or, most importantly, with mRNA targets. We analysed the sequence selectivities of our PNAs with stricter models (DNA2 and RNA2) involving single base mismatches (G→T or G→U) located in the middle of the target sequences. In each case the sequence selectivity was confirmed by significant lowering of the melting temperature. The ranges of ΔTm due to the presence of these single mismatches were 8–21 °C for DNA, with the maximum drop in the case of PNA4 and the minimum observed in that of PNA6. For the latter it should be considered that the mismatch was facing the last chiral monomer, preventing the cooperative effect observed in the case of 2D-modifed highly constrained PNA.[22]
(§3) Measurements of Tm values: The Tm values were determined with a Lambda Bio 20 spectrophotometer and a Peltier PTP6 temperature programmer. Thermal denaturation profiles were measured by monitoring the absorbance at 260 nm from 18 to 90 °C with a heating rate of 1 °C min^−1 and recording every 0.1 °C. Measurement conditions: [PNA]=[DNA] or [RNA]=5 μM in PBS buffer [pH 7.0, NaCl (100 mM), NaH2PO4⋅H2O (10 mM), EDTA (0.1 mM)] with urea (5 M).

[4] = tested on: RNA1 (target region of miR-210); assay: Melting temperature (Tm) of PNA:RNA duplexes, full-match RNA; assay type: binding; details: UV absorbance at 260 nm, strand concentration 5 μM; for Tm, RNA1 in water: PBS buffer pH 7, no urea; for Tm, RNA1 in urea (5 M): PBS buffer pH 7 with urea 5 M
Procedure: as §3, with “Measurement conditions: [PNA]=[DNA] or [RNA]=5 μM in PBS buffer [pH 7.0, NaCl (100 mM), NaH2PO4⋅H2O (10 mM), EDTA (0.1 mM)] with urea (5 M).” left out

miR-210 = miR-210 content by RT-qPCR analysis; assay type: cell-based, human; details: K562 cells, 24 h; for miR-210 inhibition upon treatment with mithramycin: PNA 2 μM with MTH 15 nM, relative to pept-1 and MTH; for inhibition of miR-210 bioavailability (miR-210 content): PNA 2 μM, Figure 5 A and B, relative to pept-1
Procedure: K562 cells were treated with 15 nM mithramycin in the presence of a PNA (2 μM), and after 24 h RNA was isolated and miR-210 was assayed by RT-qPCR analysis. This type of test has been used to evaluate miR content in many studies because it allows the free-miR content to be evaluated. […] Figure 5 A and B reports the obtained data, showing that inhibition of miR bioavailability was induced both with the modified PNA and with the peptide-conjugated one, whereas in the case of PNA1 it was unchanged. […] This might be related to inhibition of pre-miR maturation or to unavailability of the miR to the qRT-PCR analysis due to strong complexation with the PNA. In either case the bioavailability of the miR for targeting other genes should be reduced.
Transfection procedures: Anti-miR-210 PNAs were directly added to the cellular medium to reach the indicated final concentrations. K562 cells were cultured in 24-well plates starting from the initial density of 30 000 cells per mL. MTH was administrated together with anti-miR PNAs.
RNA extraction: Cells were isolated by centrifugation at 1500 rpm for 10 min at 4 °C, washed in PBS and lysed in Tri-reagent (Sigma–Aldrich) according to the manufacturer's instructions. The isolated RNA was washed once with cold ethanol (75 %), dried and dissolved in ultrapure nuclease-free water.
Real-time quantitative PCR: For microRNA quantification with real-time RT-PCR reagents, the primers and probes were obtained from Applied Biosystems. Reverse transcriptase (RT) reactions were performed with a TaqMan MicroRNA Reverse Transcription Kit (Applied Biosystems) for hsa-miR-210, hsa-miR-10a, hsa-miR-93, hsa-miR-99b, hsa-miR-126, hsa-miR-149, hsa-miR-424, hsa-miR-483-5p, hsa-miR-625, hsa-let-7c and the iQTM5 real-time PCR System Instrument (Bio-Rad). Relative expression was calculated by the comparative cycle threshold method and U6 microRNA was used as reference gene to normalise all RNA samples, because it is constant in the assayed samples by miR-profiling and quantitative RT-PCR analysis as previously reported.[25]

[5] = tested on: RNA2 (mismatched RNA, G→U); assay: Melting temperature (Tm) of PNA:RNA duplexes, single-mismatch RNA; assay type: binding; details: UV absorbance at 260 nm, PBS buffer pH 7 with urea 5 M, strand concentration 5 μM
Description: as §2, §3

[6] = tested on: DNA1 (full-match antiparallel DNA); assay: Melting temperature (Tm) of PNA:DNA duplexes, full-match DNA; assay type: binding; details: UV absorbance at 260 nm, strand concentration 5 μM; for Tm, DNA1 in urea (5 M): PBS buffer pH 7 (NaCl 100 mM, NaH2PO4 10 mM, EDTA 0.1 mM) with urea 5 M; for Tm, DNA1 in water: PBS buffer pH 7, no urea, 18 to 90 °C at 1 °C/min
Procedure: as §3, with “Measurement conditions: [PNA]=[DNA] or [RNA]=5 μM in PBS buffer [pH 7.0, NaCl (100 mM), NaH2PO4⋅H2O (10 mM), EDTA (0.1 mM)] with urea (5 M).” left out

Substance: Flu-AEEA-R8-CCGCTGTCACACGCACAG-NH2 [PNA2-Fl, fluorescein-labelled R8-conjugated PNA2, reference compound]
change of cellular uptake in the presence of serum (K562 cells [1]): decreased uptake
cellular uptake (internalisation) in the absence of serum (K562 cells [1]; serum-free, FACS FL1 channel): efficiently internalised
effect of trypsin pre-incubation on cellular uptake (K562 cells [2]): trypsin treatment affects the cellular uptake

Substance: H-C2DArgC2DArgG2DArgC2DArgT2DArgG2DArgT2DArgC2DArgACACGCACAG-NH2 [PNA6, 2D Arg (C2) backbone-modified 18-mer PNA, model 2, stretch of consecutive modified monomers]
ΔTm due to single mismatch, DNA ([3]; DNA1 vs DNA2 (G→T in the middle of the target), urea 5 M): 8 °C
Tm, DNA2 in urea (5 M) [3]: 69 °C
Tm, RNA1 in water [4]: >90 °C
Tm, RNA1 in urea (5 M) [4]: 75 °C
miR-210 inhibition upon treatment with mithramycin (miR-210): significant inhibition, but to lesser extents
inhibition of miR-210 bioavailability (miR-210 content) (miR-210): Stronger inhibition
Tm, RNA2 in urea (5 M) [5]: 65 °C
Tm, DNA1 in urea (5 M) [6]: 77 °C
Tm, DNA1 in water [6]: >90 °C

Substance: H-CC2DARGGC2DARGTG2DARGTC2DARGAC2DARGAC2DARGGC2DARGAC2DARG AG-NH2 [PNA5, 2D Arg (C2) backbone-modified 18-mer PNA, model 1, alternating modified monomers]
Tm, DNA2 in urea (5 M) [3]: 64 °C
Tm, RNA1 in water [4]: >90 °C
Tm, RNA1 in urea (5 M) [4]: 78 °C
miR-210 inhibition upon treatment with mithramycin (miR-210): significant inhibition, but to lesser extents
inhibition of miR-210 bioavailability (miR-210 content) (miR-210): less efficient inhibition
Tm, RNA2 in urea (5 M) [5]: 62 °C
Tm, DNA1 in urea (5 M) [6]: 74 °C
Tm, DNA1 in water [6]: >90 °C

Second part, the substance after the results:

change of cellular uptake in the presence of serum (K562 cells [1]): no decreases in uptake
effect of trypsin pre-incubation on cellular uptake (K562 cells [2]): does not affect uptake
Substance: Fl-AEEA-C2DArgC2DArgG2DArgC2DArgT2DArgG2DArgT2DArgC2DArgACACGCACAG-NH2 [PNA6-Fl, fluorescein-labelled PNA6]

change of cellular uptake in the presence of serum (K562 cells [1]): only minor decreases in uptake
effect of trypsin pre-incubation on cellular uptake (K562 cells [2]): does not affect uptake
Substance: Fl-AEEA-C5LArgC5LArgG5LArgC5LArgT5LArgG5LArgT5LArgC5LArgACACGCACAG-NH2 [PNA4-Fl, fluorescein-labelled PNA4]

change of cellular uptake in the presence of serum (K562 cells [1]): no decreases in uptake
effect of trypsin pre-incubation on cellular uptake (K562 cells [2]): does not affect uptake
Substance: Fl-AEEA-CC2DArgGC2DArgTG2DArgTC2DArgAC2DArgAC2DArgGC2DArgAC2DArg AG-NH2 [PNA5-Fl, fluorescein-labelled PNA5]

change of cellular uptake in the presence of serum (K562 cells [1]): only minor decreases in uptake
effect of trypsin pre-incubation on cellular uptake (K562 cells [2]): does not affect uptake
Substance: Fl-AEEA-CC5LArgGC5LArgTG5LArgTC5LArgAC5LArgAC5LArgGC5LArgAC5LArgAG-NH2 [PNA3-Fl, fluorescein-labelled PNA3]
